Laboratory results as given in ChEMBL document CHEMBL5465560, “Selectivity Literature for EUbOPEN Chemogenomic Library” (2024).
Each block holds one molecule with its values, some of them ahead of it.

Assays:
[1] = target: ALK tyrosine kinase receptor (Homo sapiens, UniProt Q9UM73); experiment: Selectivity interaction (Upstate Kinase Profiler service (Millipore)) EUB0000056c ALK; settings: at 1 µM
[2] = target: Casein kinase I isoform gamma-2 (Homo sapiens) (UniProt P78368); experiment: Selectivity interaction (ProQinase) EUB0000171b CSNK1G2
[3] = target: LIM domain kinase 2 (Homo sapiens) (UniProt P53671); experiment: Selectivity interaction (KinomeScan (DiscoverX)) EUB0000695a LIMK2; settings: at 100 nM
[4] = target: Ribosomal protein S6 kinase alpha-2 (Homo sapiens) (UniProt Q15349); experiment: Selectivity interaction (KinomeScan (DiscoverX)) EUB0000595a RPS6KA2; settings: at 10 µM
[5] = target: T1, Cyclin-G-associated kinase (Homo sapiens) (UniProt O14976); experiment: Selectivity interaction (KinomeScan (DiscoverX)) EUB0000655a GAK; settings: at 10 µM
T1 sequence (whole entry): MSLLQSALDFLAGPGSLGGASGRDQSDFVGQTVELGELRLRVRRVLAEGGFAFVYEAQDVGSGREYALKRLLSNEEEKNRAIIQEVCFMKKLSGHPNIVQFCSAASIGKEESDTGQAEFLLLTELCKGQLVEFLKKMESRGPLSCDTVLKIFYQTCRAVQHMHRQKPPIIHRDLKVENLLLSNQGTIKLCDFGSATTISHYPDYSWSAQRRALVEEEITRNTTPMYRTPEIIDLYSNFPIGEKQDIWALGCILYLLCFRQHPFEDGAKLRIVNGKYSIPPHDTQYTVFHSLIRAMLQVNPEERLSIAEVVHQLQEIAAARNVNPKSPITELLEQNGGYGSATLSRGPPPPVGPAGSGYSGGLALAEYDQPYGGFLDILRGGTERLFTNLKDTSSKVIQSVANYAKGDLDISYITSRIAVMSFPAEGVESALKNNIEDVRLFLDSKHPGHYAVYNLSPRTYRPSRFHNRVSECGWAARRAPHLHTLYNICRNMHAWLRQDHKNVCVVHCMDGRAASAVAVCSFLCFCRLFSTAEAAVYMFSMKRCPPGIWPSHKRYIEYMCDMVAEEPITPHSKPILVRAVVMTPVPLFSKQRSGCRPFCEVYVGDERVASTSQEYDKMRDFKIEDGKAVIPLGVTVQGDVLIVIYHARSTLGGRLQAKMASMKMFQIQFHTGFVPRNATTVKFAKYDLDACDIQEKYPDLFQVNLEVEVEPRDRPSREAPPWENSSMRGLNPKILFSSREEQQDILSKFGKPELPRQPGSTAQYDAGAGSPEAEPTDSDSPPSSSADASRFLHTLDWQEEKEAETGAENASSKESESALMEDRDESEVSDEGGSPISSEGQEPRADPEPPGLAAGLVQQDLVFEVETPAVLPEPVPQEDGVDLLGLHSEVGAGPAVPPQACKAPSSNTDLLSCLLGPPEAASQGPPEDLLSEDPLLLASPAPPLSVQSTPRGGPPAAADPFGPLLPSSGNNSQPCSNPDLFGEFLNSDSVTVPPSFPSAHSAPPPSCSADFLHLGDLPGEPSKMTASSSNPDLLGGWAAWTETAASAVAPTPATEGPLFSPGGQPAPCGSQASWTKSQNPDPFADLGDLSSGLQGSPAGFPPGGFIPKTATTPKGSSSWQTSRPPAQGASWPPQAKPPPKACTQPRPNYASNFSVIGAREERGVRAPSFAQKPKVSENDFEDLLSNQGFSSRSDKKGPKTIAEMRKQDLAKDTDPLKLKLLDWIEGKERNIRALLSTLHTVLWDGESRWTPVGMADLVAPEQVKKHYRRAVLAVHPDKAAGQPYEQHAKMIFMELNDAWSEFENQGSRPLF

[6] = target: Ribosomal protein S6 kinase alpha-4 (Homo sapiens) (UniProt O75676); settings: at 10 µM
[7] = target: Macrophage colony-stimulating factor 1 receptor (Homo sapiens) (UniProt P07333); experiment: Selectivity interaction (KinomeScan (DiscoverX)) EUB0000618a CSF1R; settings: at 10 µM
[8] = target: T2, Beta-adrenergic receptor kinase 1 (Homo sapiens) (UniProt P25098); experiment: Selectivity interaction (ActivX KiNativ screen (ex vivo kinase selectivity in human PBMCs)) EUB0001619a ADRBK1; type: cell-based; settings: PBMC, at 1 µM
T2 sequence (whole entry): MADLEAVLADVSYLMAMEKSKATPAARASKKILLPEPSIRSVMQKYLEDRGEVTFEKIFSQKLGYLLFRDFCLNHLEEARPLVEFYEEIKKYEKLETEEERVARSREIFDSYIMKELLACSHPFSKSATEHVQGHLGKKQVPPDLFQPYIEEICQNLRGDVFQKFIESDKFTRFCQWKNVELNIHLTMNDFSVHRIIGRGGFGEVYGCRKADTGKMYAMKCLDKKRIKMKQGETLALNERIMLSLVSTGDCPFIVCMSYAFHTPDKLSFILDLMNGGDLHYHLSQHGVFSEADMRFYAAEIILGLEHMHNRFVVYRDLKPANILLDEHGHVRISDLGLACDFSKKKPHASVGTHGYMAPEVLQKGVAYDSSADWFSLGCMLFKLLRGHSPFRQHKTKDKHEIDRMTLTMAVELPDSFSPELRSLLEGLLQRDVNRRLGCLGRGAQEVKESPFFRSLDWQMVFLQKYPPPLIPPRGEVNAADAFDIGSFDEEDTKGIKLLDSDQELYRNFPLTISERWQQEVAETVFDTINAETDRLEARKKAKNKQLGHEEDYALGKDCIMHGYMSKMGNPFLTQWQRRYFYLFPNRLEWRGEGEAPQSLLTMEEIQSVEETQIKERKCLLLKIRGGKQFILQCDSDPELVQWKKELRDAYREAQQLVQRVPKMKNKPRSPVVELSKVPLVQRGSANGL

[9] = target: Interleukin-1 receptor-associated kinase 1 (Homo sapiens) (UniProt P51617); experiment: Selectivity interaction (KinomeScan (DiscoverX)) EUB0001619a IRAK1; settings: at 1 µM
[10] = target: Serine/threonine-protein kinase tousled-like 2 (Homo sapiens) (UniProt Q86UE8); experiment: Selectivity interaction (ActivX KiNativ screen (ex vivo kinase selectivity in human PBMCs)) EUB0001619a TLK2; type: cell-based; settings: PBMC, at 1 µM
Serine/threonine-protein kinase tousled-like 2 (Homo sapiens), sequence (Q86UE8 whole entry, looked up): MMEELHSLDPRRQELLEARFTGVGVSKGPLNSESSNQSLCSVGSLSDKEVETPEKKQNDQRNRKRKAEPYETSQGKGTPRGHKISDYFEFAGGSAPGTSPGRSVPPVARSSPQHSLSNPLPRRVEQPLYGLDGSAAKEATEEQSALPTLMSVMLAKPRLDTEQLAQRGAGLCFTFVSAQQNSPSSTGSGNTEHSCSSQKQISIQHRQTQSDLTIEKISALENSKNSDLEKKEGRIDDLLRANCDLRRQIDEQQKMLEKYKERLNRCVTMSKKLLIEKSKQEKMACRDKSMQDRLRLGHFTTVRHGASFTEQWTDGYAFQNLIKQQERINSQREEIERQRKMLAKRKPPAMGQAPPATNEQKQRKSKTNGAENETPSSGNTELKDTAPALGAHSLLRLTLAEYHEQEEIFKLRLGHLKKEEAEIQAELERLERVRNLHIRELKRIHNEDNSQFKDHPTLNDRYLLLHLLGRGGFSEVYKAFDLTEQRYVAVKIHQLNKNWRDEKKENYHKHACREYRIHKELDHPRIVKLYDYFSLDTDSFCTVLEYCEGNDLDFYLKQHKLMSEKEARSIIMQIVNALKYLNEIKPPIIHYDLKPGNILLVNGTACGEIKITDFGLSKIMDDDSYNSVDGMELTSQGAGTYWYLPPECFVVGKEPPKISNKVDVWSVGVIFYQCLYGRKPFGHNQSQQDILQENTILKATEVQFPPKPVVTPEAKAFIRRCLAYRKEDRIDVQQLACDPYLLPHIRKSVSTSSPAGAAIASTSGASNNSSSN

Casein kinase I isoform gamma-2 (Homo sapiens), sequence (P78368 whole entry, looked up, the tested form may be a part, canonical isoform): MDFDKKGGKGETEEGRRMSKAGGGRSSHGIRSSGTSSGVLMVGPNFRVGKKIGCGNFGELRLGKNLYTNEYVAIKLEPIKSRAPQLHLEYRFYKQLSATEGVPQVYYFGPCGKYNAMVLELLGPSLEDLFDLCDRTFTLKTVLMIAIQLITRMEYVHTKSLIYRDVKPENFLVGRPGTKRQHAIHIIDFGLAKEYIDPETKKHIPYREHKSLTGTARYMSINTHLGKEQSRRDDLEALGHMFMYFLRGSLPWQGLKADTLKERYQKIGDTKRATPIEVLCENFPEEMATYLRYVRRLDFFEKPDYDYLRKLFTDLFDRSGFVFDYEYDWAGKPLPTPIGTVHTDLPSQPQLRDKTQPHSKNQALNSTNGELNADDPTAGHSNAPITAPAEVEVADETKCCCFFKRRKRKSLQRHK
Ribosomal protein S6 kinase alpha-4 (Homo sapiens), sequence (O75676 whole entry, looked up): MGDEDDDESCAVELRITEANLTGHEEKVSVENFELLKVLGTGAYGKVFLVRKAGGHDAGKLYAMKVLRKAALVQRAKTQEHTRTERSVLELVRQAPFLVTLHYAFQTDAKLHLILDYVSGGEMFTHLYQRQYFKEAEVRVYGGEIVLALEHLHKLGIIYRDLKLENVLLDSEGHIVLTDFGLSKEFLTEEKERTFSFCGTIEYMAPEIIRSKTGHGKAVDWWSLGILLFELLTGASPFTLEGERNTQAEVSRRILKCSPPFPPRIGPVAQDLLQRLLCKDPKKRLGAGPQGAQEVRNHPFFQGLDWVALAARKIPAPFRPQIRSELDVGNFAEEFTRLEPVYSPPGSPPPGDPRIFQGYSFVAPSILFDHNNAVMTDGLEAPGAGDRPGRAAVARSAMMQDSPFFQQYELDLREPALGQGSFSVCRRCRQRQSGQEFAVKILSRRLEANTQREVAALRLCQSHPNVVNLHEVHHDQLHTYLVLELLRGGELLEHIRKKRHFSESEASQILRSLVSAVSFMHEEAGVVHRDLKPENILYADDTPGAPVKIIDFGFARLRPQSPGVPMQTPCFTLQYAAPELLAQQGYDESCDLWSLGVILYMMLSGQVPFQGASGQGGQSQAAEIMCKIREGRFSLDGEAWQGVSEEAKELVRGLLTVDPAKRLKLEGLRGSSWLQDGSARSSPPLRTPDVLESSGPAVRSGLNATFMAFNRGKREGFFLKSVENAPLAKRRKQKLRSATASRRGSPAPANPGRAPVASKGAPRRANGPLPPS
LIM domain kinase 2 (Homo sapiens), sequence (P53671 whole entry, looked up, the tested form may be a part): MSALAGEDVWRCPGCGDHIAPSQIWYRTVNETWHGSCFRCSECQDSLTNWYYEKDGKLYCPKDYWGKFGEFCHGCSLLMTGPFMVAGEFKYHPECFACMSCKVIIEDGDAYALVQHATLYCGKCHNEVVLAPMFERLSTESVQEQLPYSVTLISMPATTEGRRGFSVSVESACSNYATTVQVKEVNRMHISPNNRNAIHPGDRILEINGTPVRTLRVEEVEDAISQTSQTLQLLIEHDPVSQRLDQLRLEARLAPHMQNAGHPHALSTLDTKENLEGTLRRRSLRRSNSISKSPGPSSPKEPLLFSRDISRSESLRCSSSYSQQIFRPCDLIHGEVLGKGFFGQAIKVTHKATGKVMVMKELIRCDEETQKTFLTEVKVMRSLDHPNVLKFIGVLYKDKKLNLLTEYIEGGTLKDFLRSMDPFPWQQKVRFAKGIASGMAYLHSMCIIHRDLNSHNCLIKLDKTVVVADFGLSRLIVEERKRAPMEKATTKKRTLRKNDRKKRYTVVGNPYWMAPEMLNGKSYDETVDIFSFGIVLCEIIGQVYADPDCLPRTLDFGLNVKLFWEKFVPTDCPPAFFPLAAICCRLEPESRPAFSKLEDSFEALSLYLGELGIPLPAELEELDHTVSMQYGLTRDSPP
Ribosomal protein S6 kinase alpha-2 (Homo sapiens), sequence (Q15349 whole entry): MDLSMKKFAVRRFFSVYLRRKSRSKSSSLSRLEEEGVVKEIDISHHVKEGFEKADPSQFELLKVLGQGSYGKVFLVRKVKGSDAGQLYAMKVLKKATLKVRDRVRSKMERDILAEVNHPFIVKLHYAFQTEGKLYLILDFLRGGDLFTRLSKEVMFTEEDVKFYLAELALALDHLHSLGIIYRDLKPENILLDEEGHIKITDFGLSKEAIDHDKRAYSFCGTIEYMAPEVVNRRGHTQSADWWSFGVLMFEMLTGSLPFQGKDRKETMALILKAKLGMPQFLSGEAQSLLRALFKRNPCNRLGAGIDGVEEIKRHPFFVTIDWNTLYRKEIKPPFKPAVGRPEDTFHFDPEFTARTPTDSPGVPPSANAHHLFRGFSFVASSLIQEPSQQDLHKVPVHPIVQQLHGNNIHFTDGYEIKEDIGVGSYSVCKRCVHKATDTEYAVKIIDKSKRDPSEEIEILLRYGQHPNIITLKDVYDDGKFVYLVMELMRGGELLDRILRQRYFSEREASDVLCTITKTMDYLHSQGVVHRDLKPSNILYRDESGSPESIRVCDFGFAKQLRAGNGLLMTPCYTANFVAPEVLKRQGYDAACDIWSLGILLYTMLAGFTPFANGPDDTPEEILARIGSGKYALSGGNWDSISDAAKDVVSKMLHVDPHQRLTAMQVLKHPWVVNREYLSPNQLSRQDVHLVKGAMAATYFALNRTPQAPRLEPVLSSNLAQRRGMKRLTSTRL
Interleukin-1 receptor-associated kinase 1 (Homo sapiens), sequence (P51617 whole entry, looked up): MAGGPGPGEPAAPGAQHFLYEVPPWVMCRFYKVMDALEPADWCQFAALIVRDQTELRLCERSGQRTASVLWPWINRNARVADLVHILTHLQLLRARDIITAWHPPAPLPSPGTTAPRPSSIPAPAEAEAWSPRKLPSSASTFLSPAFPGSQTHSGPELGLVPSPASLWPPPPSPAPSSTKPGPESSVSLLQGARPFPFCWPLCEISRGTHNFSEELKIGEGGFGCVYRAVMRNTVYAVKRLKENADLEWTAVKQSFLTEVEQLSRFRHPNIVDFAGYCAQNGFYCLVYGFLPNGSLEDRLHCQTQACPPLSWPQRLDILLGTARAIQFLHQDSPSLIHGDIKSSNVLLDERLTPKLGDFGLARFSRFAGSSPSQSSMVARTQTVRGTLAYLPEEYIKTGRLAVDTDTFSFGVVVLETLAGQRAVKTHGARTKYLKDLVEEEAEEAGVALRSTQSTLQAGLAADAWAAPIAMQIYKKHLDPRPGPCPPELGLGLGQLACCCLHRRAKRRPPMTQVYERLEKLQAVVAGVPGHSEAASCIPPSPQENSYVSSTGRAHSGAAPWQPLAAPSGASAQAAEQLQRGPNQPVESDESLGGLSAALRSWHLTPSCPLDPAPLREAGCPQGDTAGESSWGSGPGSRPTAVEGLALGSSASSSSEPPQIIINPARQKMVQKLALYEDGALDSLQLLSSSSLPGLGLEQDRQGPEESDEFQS
Macrophage colony-stimulating factor 1 receptor (Homo sapiens), sequence (P07333 whole entry): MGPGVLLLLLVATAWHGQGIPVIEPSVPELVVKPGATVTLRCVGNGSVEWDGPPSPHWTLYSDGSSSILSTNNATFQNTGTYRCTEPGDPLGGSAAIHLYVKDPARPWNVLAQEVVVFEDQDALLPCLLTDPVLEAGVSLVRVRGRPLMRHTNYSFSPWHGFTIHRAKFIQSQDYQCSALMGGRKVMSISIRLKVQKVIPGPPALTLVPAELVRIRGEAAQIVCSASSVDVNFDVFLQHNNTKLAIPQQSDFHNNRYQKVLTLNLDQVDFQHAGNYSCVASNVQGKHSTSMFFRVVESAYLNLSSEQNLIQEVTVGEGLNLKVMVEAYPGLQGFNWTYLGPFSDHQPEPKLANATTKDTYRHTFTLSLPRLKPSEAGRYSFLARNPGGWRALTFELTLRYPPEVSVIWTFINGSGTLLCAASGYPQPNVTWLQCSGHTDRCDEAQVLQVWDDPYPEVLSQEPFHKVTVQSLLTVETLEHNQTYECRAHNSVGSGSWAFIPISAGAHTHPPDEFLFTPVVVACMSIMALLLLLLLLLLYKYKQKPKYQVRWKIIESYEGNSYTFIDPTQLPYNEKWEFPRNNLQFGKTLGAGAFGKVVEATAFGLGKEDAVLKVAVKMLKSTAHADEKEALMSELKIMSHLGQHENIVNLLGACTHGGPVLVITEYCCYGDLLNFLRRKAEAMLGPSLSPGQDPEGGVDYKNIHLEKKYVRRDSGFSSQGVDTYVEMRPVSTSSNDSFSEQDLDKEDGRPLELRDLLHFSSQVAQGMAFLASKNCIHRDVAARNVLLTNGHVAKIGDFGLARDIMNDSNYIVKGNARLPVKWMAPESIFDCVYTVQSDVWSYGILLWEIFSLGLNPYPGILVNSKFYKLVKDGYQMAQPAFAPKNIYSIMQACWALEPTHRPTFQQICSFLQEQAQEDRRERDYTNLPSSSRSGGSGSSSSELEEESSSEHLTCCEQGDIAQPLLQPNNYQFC

- % of inhibition [1]: 43%
Structure (SMILES): Cc1ccc(-c2ccc3c(ccc4sc5c(c43)NC[C@@H](C)NC5=O)n2)cn1

- % of control ([2]; at 1 µM): 22%
- % of control ([2]; at 5 µM): 5%
Structure (SMILES): C=CC(=O)Nc1cccc(C(=O)Nc2ccc(Nc3cc(-c4[nH]c(SC)nc4C)ccn3)cc2)c1

Structure (SMILES): Cc1cc(F)c(C(=O)Nc2cccc(-c3nncn3C(C)C)n2)cc1-n1cnc(C2CC2)c1
- % of control [3]: 89%

Structure (SMILES): COCC(=O)NC/C=C/c1ccc2ncnc(Nc3ccc(Oc4ccc(C)nc4)c(C)c3)c2c1 [CP-724714]
- % of control [4]: 78%

Structure (SMILES): CN(C)CCOc1ccc(-c2nc(-c3ccncc3)c(-c3ccc4c(c3)CC/C4=N\O)[nH]2)cc1
- % of control [5]: 25%

Structure (SMILES): Cc1cc([C@@H](C)Nc2ccccc2C(=O)O)c2nc(N3CCOCC3)cc(=O)n2c1 [AZD-6482]
- % of control [6]: 94%

Structure (SMILES): O[C@H]1CC[C@H](Nc2ncc3nc(Nc4c(F)cc(F)cc4F)n([C@H]4CCOC4)c3n2)CC1
- % of control [7]: 64%

Structure (SMILES): N#Cc1cccc(-c2c[nH]c3ncnc(N4CCOCC4)c23)c1
- % of inhibition [8]: -5%
- % of control [9]: 23%
- % of inhibition [10]: 6%
